Measured values taken from ChEMBL document CHEMBL3352710, “Endoperoxide polyketides from a Chinese Plakortis simplex: further evidence of the impact of stereochemistry on antimalarial activity of simple 1,2-dioxanes” (Bioorg Med Chem, 2014).

Columns and labels:
Plasmodium falciparum [1] = assay: Antimalarial activity against chloroquine-sensitive Plasmodium falciparum D10 after 72 hrs by lactate dehydrogenase assay; assay type: functional
Plasmodium falciparum [2] = assay: Antimalarial activity against chloroquine-resistant Plasmodium falciparum W2 after 72 hrs by lactate dehydrogenase assay; assay type: functional, organism-based; details: W2, 72 h
[3] = Plasmodium falciparum, D10, 72 h, read-out: IC50

Structure (SMILES)	IC50 (Plasmodium falciparum [1]; [3]) [µM]	IC50 (Plasmodium falciparum [2]) [µM]	IC50 (Plasmodium falciparum [1])
CC/C=C/[C@H](CC)C[C@]1(CC)C=C(CC)[C@H](CC(=O)OC)OO1	3.89	2.91	–
CCCC[C@H](CC)C[C@]1(CC)C=C(CC)[C@H](CC(=O)OC)OO1	4.05	2.7	–
CCCCC(C)C[C@H](CC)C[C@@]1(C)C[C@H](CC)[C@@H](CC(=O)OC)OO1 (stereo not given in full)	5.12	4.1	–
CCCC[C@H](CC)C[C@@]1(CC)C[C@H](CC)[C@@H](CC(=O)OC)OO1	–	11.4	Not Active
CCCC[C@H](CC)C[C@@]1(CC)C[C@H](CC)[C@H](CC(=O)OC)OO1	6.18	4.98	–
CCCC[C@H](C)C[C@]1(CC)C=C(CC)[C@H](CC(=O)OC)OO1	1.77	1.56	–
C[C@@H]1CC[C@H]2[C@@H](C)C(=O)O[C@@H]3O[C@@]4(C)CC[C@@H]1[C@]32OO4 [ARTEMISININ]	–	0.009	–
CCCC[C@H](CC)C[C@@]1(C)C[C@@H](CC)[C@@H](CC(=O)OC)OO1	0.9	0.43	–
